Tested on: Yac-1 cell line
Experiment: Cytotoxicity of NK cells cultured in NK cell activation medium including antioxidants, co-culture with Yac-1 cells
Settings: mouse spleen NK cells cultured 30-60 minutes in medium with 1 mM N-acetylcysteine or 0.5 mM TEMPOL; compared with normal NK cells (control) (FIG. 6)
Protocol: NK cell activation media were prepared as follows. In an NK cell culture medium obtained by mixing 10% FBS, 1× penicillin/streptomycin, 1× glutamax, 1× HEPES, 0.5 mM sodium pyruvate, 50 μM 2-mercaptoethanol, and 50 ng/ml interleukin-2 (IL-2) in RPMI1640 medium, 1 mM N-acetylcysteine or 0.5 mM 4-hydroxy-2,2,6,6-tetramethylpiperidine 1-oxyl (TEMPOL) was blended.
The Yac-1 cell line was added in RPMI1640 (10% FBS/RPMI1640) medium including 10% FBS, treated with 5 μg/ml Calcein AM (Invitrogen, C1430), and cultured for 1 hour in a cell culture machine at 37° C. in the presence of 5% carbon dioxide conditions to label with fluorescence. Afterwards, the NK cells and fluorescence-labeled Yac-1 cells were mixed in a ratio of 10:1, 5:1, and 1:1 and dispensed in a round bottom 96-well plate (SPL, #34096). Additionally, fluorescence-labeled Yac-1 cells were also dispensed into the wells of the maximum (Maximum, 10% FBS/RPMI1640 including 2% Triton X-100) and minimum (Minimum, 10% FBS/RPMI1640) to calculate the cytotoxicity rate. […] After culture for 4 hours, the medium was mixed well and centrifuged at 100×g for 5 minutes, the supernatant was transferred to a black plate (SPL, #30296), and fluorescence was measured using a fluorescence microplate reader. […]
Cytotoxicity=[(Test fluorescence−minimum fluorescence)/(maximum fluorescence−minimum fluorescence)]×100 [Equation 1] […]

CC1(C)CC(O)CC(C)(C)N1[O] [Tempol, 4-hydroxy-2,2,6,6-tetramethylpiperidine 1-oxyl]
cytotoxicity: higher cytotoxicity than normal NK cells

Reference: US20240408140A1, “ENHANCING ANTICANCER FUNCTION OF NATURAL KILLER CELL THROUGH REGULATION OF ANTIOXIDANT MECHANISM” (priority 2021, published 2024)
